This is an account of results in patent publication US20240254138A1, “TRICYCLIC PYRIMIDINES AS CYCLIN-DEPENDENT KINASE 7 (CDK7) INHIBITORS” (JANSSEN PHARMACEUTICA NV, priority 2021, published 2024).

A value given as a limit tells only on which side of the number the result lay.

The test system of assay [1] is RNA Polymerase II Serine 5 phosphorylation in A549 cells overexpressing CDK7-mutant (C312S). Briefly: Imaging-based cellular RNA PolII Ser5 phosphorylation assay in A549 cells overexpressing CDK7-mutant (C312S). The assay is classed as cell-based, human. To be noted: RNA PolII Ser5 phosphorylation, averaged over all measurements; for IC50: Homo sapiens, A549, A549 cells overexpressing CDK7-mutant (C312S), read-out: CDK7_A549 mutant hCDK7(pIC50) (converted); for CDK7_A549 mutant hCDK7(pIC50): A549 cells overexpressing CDK7-mutant (C312S). From the text: (§1) To evaluate inhibition of CDK7 kinase activity, a 384-well automated imaging assay was used. This assay detects Serine 5 phosphorylation on a unique heptapeptide sequence in the C-terminal domain of Rpb1 subunit of RNA polymerase II, the downstream substrate of CDK7. This heptapeptide sequence is repeated up to 52 times in the CTD of Rpb1.
(§2) A549 adenocarcinoma human alveolar basal epithelial cells (ATCC, CCL-185), rabbit Phospho-Rpb1 CTD (Ser5) antibody (D9N51 (Cell Signaling Technology)), DMEM (Sigma), Fetal Bovine Serum (Biowest), L-glutamine (Sigma), Penicillin/Streptomycin (Life Technologies), Sodium Pyruvate (Sigma), Hepes (Sigma), poly-D-lysine coated μclear 384 black plates (Greiner), formaldehyde (PolySciences), D-PBS (Sigma), Methanol (Sigma), Alexa Fluor 488 goat anti rabbit IgG secondary antibody (Life Technologies), HCS CellMask™ Deep Red stain (Life Technologies), Hoechst 33258 (Invitrogen).
(§3) RNA Polymerase II Serine 5 phosphorylation was detected using a specific rabbit Phospho-Rpb1 CTD (Ser5) antibody. A549 adenocarcinoma human alveolar basal epithelial cells were seeded in 20 μl medium (DMEM supplemented with 1% Fetal Bovine Serum (heat inactivated 30′ 56° C.), 2 mM L-glutamine, 50 U/ml penicillin 50 μg/ml streptomycin, 1 mM sodium pyruvate and 50 mM hepes) at 1000 cells/well and cultured in poly-D-lysine coated μclear 384 black plates for 20 hours at 37° C. and 5% CO2.
(§4) After incubation cells were challenged with compound for 3 hours at 37° C. and 5% CO2. DMSO was used as high control and as low control 10 μM of the following reference compound was used:
(§5) 40 nl of test compounds and controls were spotted in cell plates using Echo Liquid Handler (Echo 550, Labcyte). Incubation was followed by 20 minutes fixation with 20 μl 10% formaldehyde at room temperature. Medium/formaldehyde solution was removed, plates were washed 3 times with 30 μl D-PBS (w/o Ca^2+ and Ma^2+) and permeabilization was done by adding 20 μl ice cold methanol for 20 minutes. Cells were washed again 3 times with 30 μl D-PBS and 20 μl blocking buffer (25 ml fetal bovine serum in 500 ml D-PBS) was added for 1 hour.
(§6) After removing blocking buffer 20 μl 1/1000 primary antibody rabbit Phospho-Rpb1 CTD (Ser5) antibody was added which binds to the phosphorylated Serine5 of the heptapeptide sequences in the CTD of Rpb1. Primary antibody was removed, and plates were washed 3 times with 30 μl D-PBS followed by addition of 20 μl 1/2000 Alexa Fluor 488 goat anti rabbit IgG secondary antibody for final detection of Phospho-Rpb1 CTD (Ser5) together with 1/5000 HCS CellMask™ Deep Red stain for membrane staining and 1/5000 Hoechst 33258 for nucleus staining. Last, plates were washed 2 times with 30 μl D-PBS and wells were filled with 40 μL D-PBS, plates were sealed (Thermowell sealing tape) and stored at 4° C. until reading. Plates were read with Opera Phenix (Perkin Elmer) with 10× air objective. Data were calculated and analyzed in Phaedra.
(§7) IC50 values were calculated using the following formula: […]
(§8) Average value of all HC's and all LC's are used for normalizations.
(§9) A best-fit curve is fitted by a minimum sum of squares method to the plot of % Control vs. compound concentration. From this an IC50 value can be obtained. An estimate of the slope of the plot in terms of the Hill coefficient is also obtained.
In parallel this assay was performed in A549 cells overexpressing CDK7-mutant (C312S) to evaluate the effect of the covalent bond on potency and to screen for potential off-target effects. Mutation of Cysteine to Serine (C312S), a less nucleophilic amino acid, prevents CDK7 inhibitors from covalently binding to CDK7 and from inhibiting CDK7 activity in an irreversible manner. A stably transduced A549 cell pool was generated that overexpresses CDK7 mutant (C312S), but also expresses endogenous CDK7-WT. Covalent binders targeting the cysteine at position 312 will show a shift in potency in A549 cells overexpressing mutant C312S CDK7.

Assay [2] has as its system RNA Polymerase II Serine 5 phosphorylation (Rpb1 CTD, downstream substrate of CDK7) in A549 cells. Briefly: Imaging-based cellular RNA PolII Ser5 phosphorylation assay in A549 cells. It is filed as cell-based, human. To be noted: wild-type CDK7, RNA PolII Ser5 phosphorylation, averaged over all measurements; for IC50: Homo sapiens, A549, A549 cells, read-out: CDK7_A549 Wild-type CDK7 (pIC50) (converted); for CDK7_A549 Wild-type CDK7 (pIC50): A549 cells.
Description: as §1, §2, §3, §4, §5, §6, §7, §8, §9

As for `C#CCCN(C)C/C=C/C(=O)N1CC(N2CCC(c3ccc4c(c3)Nc3nccc(N5CCOCC5)c3[C@H](C)O4)CC2)C1` (single isomer, unassigned) [Compound 195], the IC50 in assay [1] was more than 10 µM; in assay [2], 0.129 µM.
Consider `C#Cc1cc2c(cc1C1CCN(C3CN(C(=O)C=C)C3)CC1)Nc1nccc(N3CCOCC3)c1[C@H](C)O2` (single isomer, unassigned) [Compound 209], for which the IC50 in assay [1] is more than 10 µM; in assay [2] it was 0.1 µM.
For `C#Cc1cc2c(cc1C1CCN(C3CN(C(=O)C=C)C3)CC1)Nc1nccc(N3CCOCC3)c1[C@@H](C)O2` (single isomer, unassigned) [Compound 210], in that order: more than 10 µM and 8.51 µM.
In the case of `C=CC(=O)N1CC(N2CC(c3cc4c(c(C)n3)O[C@@H](C)c3c(N5CCOCC5)ccnc3N4)C2)C1` (single isomer, unassigned) [Compound 271], the IC50 in assay [1] was more than 10 µM; in assay [2] it was 3.16 µM.
Take `C=CC(=O)N1CC[C@H](N2CCC(c3cc4c(c(C)n3)OCc3c(-c5cnn(C)c5)ccnc3N4)CC2)C1` (single isomer, unassigned) [Compound 293]: the IC50 was more than 10 µM in assay [1] and 0.102 µM in assay [2].
`C=CC(=O)N1CC[C@@H](N2CCC(c3cc4c(c(C)n3)OCc3c(N5CCOCC5)ccnc3N4)CC2)C1` (single isomer, unassigned) [Compound 294]: the “CDK7_A549 mutant hCDK7(pIC50)” value in assay [1] is listed as less than 5. Moreover, the “CDK7_A549 Wild-type CDK7 (pIC50)” value in assay [2] is on record as 7.24.
Turning to `C/C=C/C(=O)N1CC[C@@H](N2CCC(c3cc4c(c(C)n3)OCc3c(-c5cnn(C)c5)ccnc3N4)CC2)C1` (single isomer, unassigned) [Compound 302], the figures for the IC50 in assay [1] and in assay [2] were more than 10 µM and approximately 10 µM, respectively.
For `C/C=C/C(=O)N1CC[C@H](N2CCC(c3cc4c(c(C)n3)OCc3c(-c5cnn(C)c5)ccnc3N4)CC2)C1` (single isomer, unassigned) [Compound 307], in that order: more than 10 µM and more than 10 µM.
Turning to `C=C(C)C(=O)N1CC[C@@H](N2CCC(c3cc4c(c(C)n3)OCc3c(-c5cnn(C)c5)ccnc3N4)CC2)C1` (single isomer, unassigned) [Compound 311], the IC50 in assay [1] and in assay [2] was more than 10 µM in each case.
For the compound `C=C(C)C(=O)N1CC[C@H](N2CCC(c3cc4c(c(C)n3)OCc3c(-c5cnn(C)c5)ccnc3N4)CC2)C1` (single isomer, unassigned) [Compound 312], the IC50 in assay [1] and in assay [2] was more than 10 µM in each case.
Take `C=CC(=O)N1CC[C@@H](N2CC(c3cc4c(c(C)n3)O[C@@H](C)c3c(C5CCOCC5)ccnc3N4)C2)C1` (single isomer, unassigned) [Compound 334]: the IC50 in assay [1] is more than 10 µM; in assay [2] it was 5.25 µM.
The like results for `C=CC(=O)N1CC[C@H](N2CC(c3cc4c(c(C)n3)O[C@@H](C)c3c(C5CCOCC5)ccnc3N4)C2)C1` (single isomer, unassigned) [Compound 337] were, in that order, more than 10 µM and more than 5.01 µM.
As for `CC#CC(=O)N1CC(N2CC(c3cc4c(c(C)n3)O[C@@H](C)c3c(N5CCOCC5)ccnc3N4)C2)C1` (single isomer, unassigned) [Compound 356], the values for the IC50 in assay [1] and in assay [2] were more than 10 µM and 7.76 µM, respectively.
Regarding `CC#CC(=O)N1CCC(N2CC(c3cc4c(c(C)n3)O[C@H](C)c3c(N5CCOCC5)ccnc3N4)C2)CC1` (single isomer, unassigned) [Compound 358], the IC50 in assay [1] is 6.17 µM; in assay [2], 0.0398 µM.
As for `CC#CC(=O)N1CCC(N2CC(c3cc4c(c(C)n3)O[C@@H](C)c3c(N5CCOCC5)ccnc3N4)C2)CC1` (single isomer, unassigned) [Compound 360], the IC50 in assay [1] is more than 10 µM; in assay [2], 0.676 µM.
For the compound `CC#CC(=O)N1CC(N2CCC(c3cc4c(c(C)n3)O[C@@H](C)c3c(N5CCOCC5)ccnc3N4)CC2)C1` (single isomer, unassigned) [Compound 371], the IC50 in assay [1] is more than 10 µM; in assay [2] it was 2.19 µM.
With `CC#CC(=O)N1CC(N2CC[C@H](c3cc4c(c(C)n3)O[C@@H](C)c3c(N5CCOCC5)ccnc3N4)C2)C1` (single isomer, unassigned) [Compound 395], the IC50 in assay [1] and in assay [2] was more than 10 µM in each case.
`CC#CC(=O)N1CC(N2CC[C@H](c3cc4c(c(C)n3)O[C@H](C)c3c(N5CCOCC5)ccnc3N4)C2)C1` (single isomer, unassigned) [Compound 397]: the IC50 in assay [1] and in assay [2] was more than 10 µM each time.
For `CC#CC(=O)N1CC(N2CCC(c3cc4c(c(C)n3)O[C@H](C)c3c(C5CCOCC5)ccnc3N4)CC2)C1` (single isomer, unassigned) [Compound 405], the results for the IC50 in assay [1] and in assay [2] were more than 10 µM and 0.0891 µM, respectively.
For `C=CC(=O)N1CCC(N2CC(c3cc4c(c(C)n3)O[C@H](C)c3c(N5CCOCC5)ccnc3N4)C2)CC1` (single isomer, unassigned) [Compound 423], in that order: 5.89 µM and 0.0589 µM.
On to `C=CC(=O)N1CCC(N2CC(c3cc4c(c(C)n3)O[C@@H](C)c3c(N5CCOCC5)ccnc3N4)C2)CC1` (single isomer, unassigned) [Compound 430], for which the IC50 in assay [1] is more than 10 µM; in assay [2], 0.933 µM.
In the case of `CC#CC(=O)N1CC(n2cc(-c3cc4c(c(C)n3)O[C@H](C)c3c(N5CCOCC5)ccnc3N4)cn2)C1` (single isomer, unassigned) [Compound 434], the IC50 in assay [1] was more than 10 µM; in assay [2] it was 4.57 µM.
For `CC#CC(=O)N1CCC(N2CC[C@H](c3cc4c(c(C)n3)OCc3c(N5CCOCC5)ccnc3N4)C2)CC1` (single isomer, unassigned) [Compound 438], in that order: 3.09 µM and 0.191 µM.
For the compound `CC#CC(=O)N1CC(N2CC(c3cc4c(c(C)n3)O[C@@H](C)c3c(N5CCOCC5)ccnc3N4)C2)C1` (single isomer, unassigned) [Compound 441], in assay [1], the “CDK7_A549 mutant hCDK7(pIC50)” value is recorded as less than 5. Further, in assay [2], the “CDK7_A549 Wild-type CDK7 (pIC50)” value was less than 5.
On to `CC#CC(=O)N1CC(N2CC[C@@H](c3cc4c(c(C)n3)OCc3c(N5CCOCC5)ccnc3N4)N(C)CC2)C1` (single isomer, unassigned) [Compound 446], for which the IC50 in assay [1] was more than 10 µM; in assay [2], 0.794 µM.
For the compound `CC#CC(=O)N1CC(N2CC[C@H](c3cc4c(c(C)n3)OCc3c(N5CCOCC5)ccnc3N4)N(C)CC2)C1` (single isomer, unassigned) [Compound 448], the IC50 in assay [1] was 8.32 µM; in assay [2], 0.209 µM.
On to `CC#CC(=O)N1CC(n2cc(-c3cc(C#N)c4c(c3)Nc3nccc(N5CCOCC5)c3[C@@H](C)O4)cn2)C1` (single isomer, unassigned) [Compound 450], for which the values for the IC50 in assay [1] and in assay [2] were more than 10 µM and 1.78 µM, respectively.
Regarding `C#Cc1cc(C2CN([C@@H]3CCN(C(=O)C=C)C3)C2)cc2c1OCc1c(-c3cnn(C)c3)ccnc1N2` (single isomer, unassigned) [Compound 473], the results for the IC50 in assay [1] and in assay [2] were more than 10 µM and 0.166 µM, respectively.
